What was measured:
CYP2D6 = CYP2D6 (Homo sapiens, UniProt P10635); experiment: Cytochrome inhibition, fluorometric microtiter plate assay; type: in vitro ADME; settings: CYP2D6 cytochrome inhibition (IC50, concentrations in μM for 50% inhibition), human recombinant CYP2D6, substrate AMMC; compounds of the invention
Procedure: (§1) The ability of drug in human to inhibit the catalytic activity of cytochrome P-450 isoforms was assayed using microtiter plate-based, fluorometric assays for the activities of the five human major CYP forms. Inhibition potential was determined in vitro after incubation of fluorescent model substrates over various incubation time with human recombinant cytochrome isoforms in the absence or in presence of increasing concentrations of test molecules (from 1 nM to 100 μM), in comparison with specific CYP isoform inhibitors.
(§2) Incubation of drug was carried out at 37° C.±0.5° C. under agitation in the presence of human recombinant cytochrome P-450 isoforms and a NADPH generating system. The incubation conditions for each cytochrome isoform were as follows: […]

CYP3A4 = CYP3A4 (Homo sapiens, UniProt P08684); experiment: as above; type: in vitro ADME; settings: CYP3A4 cytochrome inhibition (IC50, concentrations in μM for 50% inhibition), human recombinant CYP3A4, substrate BFC; compounds of the invention
Procedure: as §1, §2

[1] = target: human histamine H3 receptors (Homo sapiens, UniProt Q9Y5N1); experiment: H3 binding ([125I]iodoproxyfan displacement on membranes); settings: compounds of the invention; membranes expressing human H3 receptors
Procedure: Membranes expressing human histamine H3 receptors were incubated 1 hour at room temperature in binding buffer containing 50 mM Na2HPO4/KH2PO4 pH 7.5 in a final volume of 200 μl. […] The reaction was stopped by rapid filtration through GF/B filters (pre-soaked for 2 hours with 0.3% polyethyleneimine) followed by 3 ice cold binding buffer washes. The filter-bound radioactivity was measured in a liquid scintillation counter with 50 μl of scintillation fluid.

CYP3A4, sequence (P08684 whole entry): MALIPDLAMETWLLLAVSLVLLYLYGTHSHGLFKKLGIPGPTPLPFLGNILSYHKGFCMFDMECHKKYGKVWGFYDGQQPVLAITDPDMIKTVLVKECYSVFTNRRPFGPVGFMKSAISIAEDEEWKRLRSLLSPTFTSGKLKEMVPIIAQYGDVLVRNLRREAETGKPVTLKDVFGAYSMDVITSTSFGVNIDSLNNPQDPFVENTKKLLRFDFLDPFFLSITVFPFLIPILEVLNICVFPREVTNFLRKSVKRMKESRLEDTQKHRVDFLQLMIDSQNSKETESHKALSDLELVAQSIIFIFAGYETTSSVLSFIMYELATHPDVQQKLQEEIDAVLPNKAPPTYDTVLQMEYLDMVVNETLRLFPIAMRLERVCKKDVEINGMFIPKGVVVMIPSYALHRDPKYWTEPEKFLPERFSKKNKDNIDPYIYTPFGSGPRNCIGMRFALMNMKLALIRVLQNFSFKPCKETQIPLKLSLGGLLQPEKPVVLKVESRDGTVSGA
CYP2D6, sequence (P10635 whole entry, canonical isoform): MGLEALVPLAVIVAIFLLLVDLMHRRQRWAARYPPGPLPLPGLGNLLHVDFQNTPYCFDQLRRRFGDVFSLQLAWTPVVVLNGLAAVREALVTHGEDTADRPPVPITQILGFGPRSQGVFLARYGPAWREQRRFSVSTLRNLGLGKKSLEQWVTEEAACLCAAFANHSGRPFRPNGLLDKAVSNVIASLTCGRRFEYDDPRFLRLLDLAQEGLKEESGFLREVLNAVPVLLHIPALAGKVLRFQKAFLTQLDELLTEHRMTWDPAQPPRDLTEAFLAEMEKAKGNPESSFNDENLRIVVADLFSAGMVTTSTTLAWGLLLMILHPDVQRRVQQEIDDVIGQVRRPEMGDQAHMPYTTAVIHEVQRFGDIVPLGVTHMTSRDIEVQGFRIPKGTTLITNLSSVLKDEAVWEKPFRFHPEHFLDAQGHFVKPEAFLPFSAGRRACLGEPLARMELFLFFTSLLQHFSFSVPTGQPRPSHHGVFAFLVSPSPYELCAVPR
human histamine H3 receptors, sequence (Q9Y5N1 whole entry): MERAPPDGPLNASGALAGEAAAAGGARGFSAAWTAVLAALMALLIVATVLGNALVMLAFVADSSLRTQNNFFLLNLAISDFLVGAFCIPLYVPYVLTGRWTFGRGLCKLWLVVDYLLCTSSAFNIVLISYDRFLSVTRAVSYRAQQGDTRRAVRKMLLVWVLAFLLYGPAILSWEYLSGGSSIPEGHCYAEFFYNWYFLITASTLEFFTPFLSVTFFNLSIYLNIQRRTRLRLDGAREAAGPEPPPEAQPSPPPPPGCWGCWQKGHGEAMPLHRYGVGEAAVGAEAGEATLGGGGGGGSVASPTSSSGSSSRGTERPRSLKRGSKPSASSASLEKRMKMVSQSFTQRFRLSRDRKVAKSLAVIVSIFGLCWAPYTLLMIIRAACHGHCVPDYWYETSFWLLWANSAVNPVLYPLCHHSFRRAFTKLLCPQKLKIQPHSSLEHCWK

Structure (SMILES)	melting point [°C]	IC50 (CYP2D6) [µM]	IC50 (CYP3A4) [µM]	Ki [1] [nM]
Cc1ccc(-c2ccc(OCCCN3CCCCC3)cc2)cc1.O=C(O)C(=O)O [Example 24, 1-{3-[(4′-methylbiphenyl-4-yl)oxy]propyl}piperidine]	195	> 10	> 10	3.5
C(#Cc1ccc(OCCCN2CCCCC2)cc1)CCN1CCCCC1.O=C(O)C(=O)O.O=C(O)C(=O)O [Example 43, 1-{3-[4-(4-Piperidinobut-1-yn-1-yl)phenoxy]propyl}piperidine]	167	> 1	> 10	–
C[C@H]1CCCN(CCCOc2ccc(-c3ccnc(O)c3)cc2)C1.O=C(O)C(=O)O [Example 55, 2-hydroxy-4-(4-{3-[(3S)-3-methylpiperidin-1-yl]propoxy}phenyl)pyridine]	110	> 10	> 10	–
C[C@H]1CCCN(CCCOc2ccc(-c3ccnc(Cl)c3)cc2)C1.O=C(O)C(=O)O.O=C(O)C(=O)O [Example 56, 2-chloro-4-(4-{3-[(3S)-3-methylpiperidin-1-yl]propoxy}phenyl)pyridine]	143	> 10	> 1	–
Cc1cc(-c2ccc(OCCCN3CCC[C@H](C)C3)cc2)ccn1.O=C(O)C(=O)O.O=C(O)C(=O)O [Example 59, 2-methyl-4-(4-{3-[(3S)-3-methylpiperidin-1-yl]propoxy}phenyl)pyridine]	97	> 10	> 10	–

— patent publication US8076329B2, “Histamine H3-receptor ligands and their therapeutic applications” (Bioprojet, priority 2005, dated 2011)
